# Where two headings read alike, the source gives them in different places. *1 amine or outer side, *2 acyl side, *3 side chain or, on linkers, in order; H or OH if unused. Where a SMILES comes first, the peptide text is derived from it. Bridges are numbered along the chain shown (N, C = ends). [ ]: non-standard residue; d: D form. The star is where a group is joined. hPhe(3,5-F2-4-CF3) = N[C@@H](CCc1cc(F)c(C(F)(F)F)c(F)c1)C(=O)O; hPhe(3-Cl-4-CF3) = N[C@@H](CCc1ccc(C(F)(F)F)c(Cl)c1)C(=O)O; NPrPhe(4-CF3) = CCCN[C@@H](Cc1ccc(C(F)(F)F)cc1)C(=O)O; X30 = C=CCCN([C@@H](Cc1ccc(C)cc1)C(=O)[*:2])[*:1]; NMeGly(cPent) = CN[C@H](C(=O)O)C1CCCC1; Pro(4,4-F2) = O=C(O)[C@@H]1CC(F)(F)CN1; Nva(3-Et) = CCC(CC)[C@H](N)C(=O)O; NMeD = CN[C@@H](CC(=O)O)C(=O)O; NMeL = CN[C@@H](CC(C)C)C(=O)O; Morpholide = C1CN(*)CCO1; NMeA = CN[C@@H](C)C(=O)O; Ac5c = NC1(C(=O)O)CCCC1; Aze = O=C(O)[C@@H]1CCN1; Ac4c = NC1(C(=O)O)CCC1; Sar = CNCC(=O)O
# Assays:
# [1] = biological target: GDP-bound KRAS wild-type protein (Homo sapiens, UniProt P01116); test: Binding to KRAS by surface plasmon resonance (SPR), Single Cycle Kinetics; conditions: GDP-bound KRAS wild-type protein, read-out: KRAS KD
# [2] = biological target: GDP-bound HRAS wild-type protein (Homo sapiens, UniProt P01112); test: Binding to HRAS by surface plasmon resonance (SPR), Single Cycle Kinetics; conditions: SPR, GDP-bound HRAS wild-type protein vs GDP-bound KRAS wild-type protein
# [3] = biological target: GDP-bound NRAS wild-type protein (Homo sapiens, UniProt P01111); test: Binding to NRAS by surface plasmon resonance (SPR), Single Cycle Kinetics; conditions: SPR, GDP-bound NRAS wild-type protein vs GDP-bound KRAS wild-type protein
# [4] = SPR Single Cycle Kinetics, 1:1 binding model
# Sequence of GDP-bound NRAS wild-type protein (P01111 whole entry): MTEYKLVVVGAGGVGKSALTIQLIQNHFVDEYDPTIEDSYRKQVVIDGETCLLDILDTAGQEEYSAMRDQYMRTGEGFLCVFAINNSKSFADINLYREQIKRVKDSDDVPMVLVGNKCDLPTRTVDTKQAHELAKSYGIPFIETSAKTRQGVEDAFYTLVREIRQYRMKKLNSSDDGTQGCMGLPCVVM
# Sequence of GDP-bound KRAS wild-type protein (P01116 whole entry): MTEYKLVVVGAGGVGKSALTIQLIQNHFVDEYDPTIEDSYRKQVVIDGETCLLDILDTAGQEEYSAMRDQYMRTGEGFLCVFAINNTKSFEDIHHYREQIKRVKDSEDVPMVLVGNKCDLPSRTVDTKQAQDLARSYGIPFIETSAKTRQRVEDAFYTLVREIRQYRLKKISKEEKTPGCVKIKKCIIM
# Sequence of GDP-bound HRAS wild-type protein (P01112 whole entry): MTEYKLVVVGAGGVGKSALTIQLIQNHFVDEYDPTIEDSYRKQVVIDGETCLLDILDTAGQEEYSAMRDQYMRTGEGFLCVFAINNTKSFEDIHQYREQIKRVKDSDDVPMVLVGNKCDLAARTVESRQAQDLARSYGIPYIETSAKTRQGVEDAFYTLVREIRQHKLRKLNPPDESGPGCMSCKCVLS
SMILES,"Kd [1, 4] [nM]","Kd ([1]; SPR, Single Cycle Kinetics) [nM]",HRAS/KRAS (ratio of KD value with respect to HRAS to KD value with respect to KRAS) [2],NRAS/KRAS (ratio of KD value with respect to NRAS to KD value with respect to KRAS) [3],HRAS/KRAS (ratio of KD value for HRAS to KD value for KRAS) [2],NRAS/KRAS (ratio of KD value for NRAS to KD value for KRAS) [3],also measured
CCO[C@@H]1C[C@H]2C(=O)NC3(CCC3)C(=O)N(C)[C@@H](C3CCCC3)C(=O)N(C)[C@H](C(=O)N(C)C)CC(=O)N(C)[C@@H](CC)C(=O)N[C@@H]([C@@H](C)CC)C(=O)N(C)CC(=O)N(C)[C@H]3CCCCCN(C3=O)[C@@H](Cc3ccc(F)cc3OC)C(=O)N(C)CC(=O)N[C@@H](CCc3cc(F)c(C(F)(F)F)c(F)c3)C(=O)N2C1 [PP0914],–,0.43,–,–,B (a compound having 3 or more and less than 10 is denoted as B),B (a compound having 3 or more and less than 10 is denoted as B),–
CCO[C@@H]1C[C@H]2C(=O)NC3(CCC3)C(=O)N(C)[C@@H](C(CC)CC)C(=O)N(C)[C@H](C(=O)N3CCOCC3)CC(=O)N(C)[C@@H](CC3CC3)C(=O)N[C@@H]([C@@H](C)CC)C(=O)N(C)CC(=O)N(C)[C@H]3C/C=C\CCN(C3=O)[C@@H](Cc3ccc(F)cc3C)C(=O)N(C)CC(=O)N[C@@H](CCc3cc(F)c(C(F)(F)F)c(F)c3)C(=O)N2C1 [PP1526],–,–,–,–,–,–,"Kd ([1]; SPR, Single Cycle Kinetics, 1:1 binding model): 1.3 nM; HRAS/KRAS (ratio of KD value for HRAS to KD value for KRAS) ([2]; KD ratio class): A (a compound having 10 or more and less than 20 is denoted as A); NRAS/KRAS (ratio of KD value for NRAS to KD value for KRAS) ([3]; KD ratio class): A (a compound having 10 or more and less than 20 is denoted as A)"
C#CC[C@H]1C(=O)N[C@@H]([C@@H](C)CC)C(=O)N(C)CC(=O)N(C)[C@H]2C/C=C\CCN(C2=O)[C@@H](Cc2ccc(C(F)(F)F)cc2)C(=O)N(C)CC(=O)N[C@@H](CCc2ccc(C(F)(F)F)c(OC)c2)C(=O)N2C[C@H](OCC)C[C@H]2C(=O)NC2(CC(C)(C)C2)C(=O)N(C)[C@@H](C2CCCC2)C(=O)N(C)[C@H](C(=O)N(C)CC)CC(=O)N1C [PP2051],–,0.12,–,–,A (a compound having 10 or more and less than 20 is denoted as A),A (a compound having 10 or more and less than 20 is denoted as A),–
"CCCN1C(=O)CN(C)C(=O)[C@@H]2CCN2C(=O)[C@H]([C@@H](C)CC)NC(=O)[C@H](CC(C)C)N(C)C(=O)C[C@@H](C(=O)N(C)C)NC(=O)[C@H](C2CCCC2)N(C)C(=O)C2(CCCC2)NC(=O)[C@@H]2CC(F)(F)CN2C(=O)[C@H](CCc2ccc(C(F)(F)F)c(Cl)c2)NC(=O)CN(C)C(=O)[C@@H]1Cc1ccc(C(F)(F)F)cc1 [PP0375] ([NMeL]I[Aze][Sar][NPrPhe(4-CF3)][Sar][hPhe(3-Cl-4-CF3)][Pro(4,4-F2)][Ac5c][NMeGly(cPent)]D-NMe2; lactam N-11)",2.3,–,–,–,B (a compound having 3 or more and less than 10 is denoted as B),B (a compound having 3 or more and less than 10 is denoted as B),–
CCO[C@@H]1C[C@H]2C(=O)NC3(CC(C)(C)C3)C(=O)N(C)[C@@H](C(CC)CC)C(=O)N(C)[C@H](C(=O)N(C)C)CC(=O)N(C)[C@@H](C)C(=O)N[C@@H]([C@@H](C)CC)C(=O)N(C)CC(=O)N(C)[C@H]3C/C=C\CCN(C3=O)[C@@H](Cc3ccc(C)cc3)C(=O)N(C)CC(=O)N[C@@H](CCc3ccc(Cl)c(Cl)c3)C(=O)N2C1 [PP2186],–,2.3,–,–,A (a compound having 10 or more and less than 20 is denoted as A),AA (a compound having 20 or more is denoted as AA),–
"CCO[C@@H]1C[C@H]2C(=O)NC3(CC(C)(C)C3)C(=O)N(C)[C@@H](C3CCCC3)C(=O)N(C)[C@H](C(=O)N(C)CC)CC(=O)N(C)[C@H]3CCCCCCc4ccc(cc4)C[C@@H](C(=O)N(C)CC(=O)N[C@@H](CCc4ccc(C(F)(F)F)c(OC)c4)C(=O)N2C1)N1CC/C=C\C[C@@H](C1=O)N(C)C(=O)CN(C)C(=O)[C@H]([C@@H](C)CC)NC3=O [PP2260, (1S,7S,11R,13S,19S,22S,26S,29S,35S,37Z)-19-cyclopentyl-11-ethoxy-N-ethyl-7-[2-[3-methoxy-4-(trifluoromethyl)phenyl]ethyl]-N,3,3′,3′,18,21,25,31,34-nonamethyl-29-[(1S)-1-methylpropyl]-2,5,8,14,17,20,24,27,30,33,55-undecaoxo-spiro[3,6,9,15,18,21,25,28,31,34,41-undecazapentacyclo[24.15.11.2^43,46.1^35,41.0^9,13]pentapentaconta-37,43(54),44,46(53)-tetraene-16,1′-cyclobutane]-22-carboxamide]",–,0.12,–,–,A (a compound having 10 or more and less than 20 is denoted as A),A (a compound having 10 or more and less than 20 is denoted as A),–

# Continued, in another order:
"Kd [1, 4] [nM]","Kd ([1]; SPR, Single Cycle Kinetics) [nM]",SMILES,HRAS/KRAS (ratio of KD value with respect to HRAS to KD value with respect to KRAS) [2],NRAS/KRAS (ratio of KD value with respect to NRAS to KD value with respect to KRAS) [3],HRAS/KRAS (ratio of KD value for HRAS to KD value for KRAS) [2],NRAS/KRAS (ratio of KD value for NRAS to KD value for KRAS) [3],also measured
0.025,–,C#CC[C@H]1C(=O)N[C@@H]([C@@H](C)CC)C(=O)N(C)CC(=O)N(C)[C@H]2CCCCN(C2=O)[C@@H](Cc2ccc(C(F)(F)F)cc2)C(=O)N(C)CC(=O)N[C@@H](CCc2cc(F)c(C(F)(F)F)c(F)c2)C(=O)N2C[C@H](OCC)C[C@H]2C(=O)NC2(CCC2)C(=O)N(C)[C@@H](C2CCCC2)C(=O)N(C)[C@H](C(=O)N2CCOCC2)CC(=O)N1C [PP0711],B (a compound having 3 or more and less than 10 is denoted as B),C (A compound having a KD ratio of 0.1 or more and less than 3 is denoted as C),–,–,–
1.4,–,"CCCN1C(=O)[C@@H]2CCN2C(=O)CN(C)C(=O)[C@H](C(CC)CC)NC(=O)[C@H](CC(C)C)N(C)C(=O)C[C@@H](C(=O)N2CCOCC2)N(C)C(=O)[C@H](C2CCCC2)N(C)C(=O)C2(CCCC2)NC(=O)[C@@H]2CCCN2C(=O)[C@H](CCc2cc(F)c(C(F)(F)F)c(F)c2)NC(=O)CN(C)C(=O)[C@@H]1Cc1ccc(C(F)(F)F)cc1 [PP0804] ([NMeL][Nva(3-Et)][Sar][Aze][NPrPhe(4-CF3)][Sar][hPhe(3,5-F2-4-CF3)]P[Ac5c][NMeGly(cPent)][NMeD]-Morpholide; lactam N-11)",B (a compound having 3 or more and less than 10 is denoted as B),C (A compound having a KD ratio of 0.1 or more and less than 3 is denoted as C),–,–,–
0.97,–,"CCCN1C(=O)CN(C)C(=O)CN(C)C(=O)[C@H](C(CC)CC)NC(=O)[C@H](CC(C)C)N(C)C(=O)C[C@@H](C(=O)N2CCOCC2)N(C)C(=O)[C@H](C2CCCC2)N(C)C(=O)C2(CCCC2)NC(=O)[C@@H]2CCCN2C(=O)[C@H](CCc2cc(F)c(C(F)(F)F)c(F)c2)NC(=O)CN(C)C(=O)[C@@H]1Cc1ccc(C(F)(F)F)cc1 [PP0768] ([NMeL][Nva(3-Et)][Sar][Sar][NPrPhe(4-CF3)][Sar][hPhe(3,5-F2-4-CF3)]P[Ac5c][NMeGly(cPent)][NMeD]-Morpholide; lactam N-11)",C (A compound having a KD ratio of 0.1 or more and less than 3 is denoted as C),B (a compound having 3 or more and less than 10 is denoted as B),–,–,–
–,0.085,CCCO[C@H]1CCN2C(=O)[C@H](CCc3cc(F)c(C(F)(F)F)c(F)c3)NC(=O)CN(C)C(=O)[C@H](Cc3ccc(C(F)(F)F)cc3)N3CCCC[C@@H](C3=O)N(C)C(=O)CN(C)C(=O)[C@H]([C@@H](C)CC)NC(=O)[C@H](CC(C)C)N(C)C(=O)C[C@@H](C(=O)N3CCOCC3)N(C)C(=O)[C@H](C3CCCC3)N(C)C(=O)C3(CCC3)NC(=O)[C@H]12 [PP1077],–,–,B (a compound having 3 or more and less than 10 is denoted as B),B (a compound having 3 or more and less than 10 is denoted as B),–
0.31,–,CC[C@H](C)[C@@H]1NC(=O)[C@H](CC(C)C)N(C)C(=O)C[C@@H](C(=O)N2CCOCC2)N(C)C(=O)[C@H](C2CCCC2)N(C)C(=O)C2(CCCCC2)NC(=O)[C@@H]2CCCN2C(=O)[C@H](CCc2cc(F)c(C(F)(F)F)c(F)c2)NC(=O)CN(C)C(=O)[C@H](Cc2ccc(C(F)(F)F)cc2)N2CCCC[C@@H](C2=O)N(C)C(=O)CN(C)C1=O [PP0561],B (a compound having 3 or more and less than 10 is denoted as B),B (a compound having 3 or more and less than 10 is denoted as B),–,–,–
0.17,–,C=CCCN1C(=O)[C@@H]2CCN2C(=O)[C@H](C)N(C)C(=O)[C@H]([C@@H](C)CC)NC(=O)[C@H](CC(C)C)N(C)C(=O)C[C@@H](C(=O)N2CCOCC2)N(C)C(=O)[C@H](C2CCCC2)N(C)C(=O)C2(CCCC2)NC(=O)[C@@H]2CCCN2C(=O)[C@H](CCc2ccc(C(F)(F)F)c(Cl)c2)NC(=O)CN(C)C(=O)[C@@H]1Cc1ccc(C)cc1 [PP0089] ([NMeL]I[NMeA][Aze][X30][Sar][hPhe(3-Cl-4-CF3)]P[Ac5c][NMeGly(cPent)][NMeD]-Morpholide; lactam N-11),–,–,B (a compound having 3 or more and less than 10 is denoted as B),C (A compound having a KD ratio of 0.1 or more and less than 3 is denoted as C),–
0.11,–,CCCN1C(=O)CN(C)C(=O)CNC(=O)[C@H]([C@@H](C)CC)NC(=O)[C@H](CC(C)C)N(C)C(=O)C[C@@H](C(=O)N2CCOCC2)N(C)C(=O)[C@H](C2CCCC2)N(C)C(=O)C2(CCC2)NC(=O)[C@@H]2CCCN2C(=O)[C@H](CCc2ccc(C(F)(F)F)c(Cl)c2)NC(=O)CN(C)C(=O)[C@@H]1Cc1ccc(C(F)(F)F)cc1 [PP0393] ([NMeL]IG[Sar][NPrPhe(4-CF3)][Sar][hPhe(3-Cl-4-CF3)]P[Ac4c][NMeGly(cPent)][NMeD]-Morpholide; lactam N-11),–,–,B (a compound having 3 or more and less than 10 is denoted as B),B (a compound having 3 or more and less than 10 is denoted as B),–
